Reference: paper PMC7217877, “N-AS-triggered SPMs are direct regulators of microglia in a model of Alzheimer’s disease” (Nature Communications, 2020)
“And” between values parts separate entries of the source, which are not always exact repeats. Identical values can stand only once.

Tests used:
[1] = tested on: microglia; test: western blotting for ac-S565 and total COX2 in primary cells; format: cell-based, C57BL/6 mice; parameters: ac-S565, western blotting (Fig 3h): scale not given here; conditions: replicates
Protocol: To confirm the generation and roles of N-AS in neurons, cells from E18 C57BL/6 mice were prepared as previously described. Cortices were dissected and then dissociated followed by incubation in papain (Worthington) at 37 °C for 15 min. Neurons were plated on poly-L-lysine-coated coverslips with neuronal culture medium, serum-free Neurobasal medium (Gibco) containing 2% B27 supplements (Gibco), 1 mM Glutamax supplement (Gibco), and 100 U ml^−1 streptomycin/ 100 U ml^−1 penicillin (Gibco) at 37 °C in a humidified atmosphere of 5% CO2. Aβ 1–42 (10 μM, 24 h, Invitrogen, 03112) was exposed to neurons and the cells were analyzed for the generation and roles of N-AS. Primary astrocyte cultures were prepared from C57BL/6 mice as described previously. In brief, after removal of the meninges, postnatal day 7 (P7) mouse brain tissues were minced and incubated in a rocking water bath at 37 °C for 30 min in the presence of 0.25% trypsin-EDTA (Sigma-Aldrich). Enzyme-digested dissociated cells were triturated with astrocyte-specific medium (DMEM/F12 containing 10% FBS and 1% penicillin-streptomycin) and centrifuged at 155×g for 8 min. The pellet was resuspended in astrocyte-specific medium and passed through a 40-μm cell strainer. The filtrate was allowed pre-adherence for 30 min to remove any contamination from fibroblasts before being seeded in dishes and the addition of astrocyte-specific medium. To split the cells, Ara-C was added to the dishes and they were then placed in a heated shaker for 6–7 h. The medium was removed from the dishes, and trypsin-EDTA was added to the dish and incubated at 37 °C for 5–10 min. After centrifugation at 155×g for 8 min, the supernatant was removed, and the astrocytes were maintained in culture by feeding […] with astrocyte-specific medium. Primary microglia cultures were prepared from C57BL/6 mice as described previously. In brief, the cortices of 2-months-old mice were minced in Hibernate A (Gibco)/B27 supplements (Gibco) medium and dissociated using papain (Worthington) solution. After tissue trituration, cells were separated by Optiprep (Sigma-Aldrich) density gradient centrifugation. Microglia were plated with microglia-specific medium (DMEM/F12 containing 10% FBS and 1% penicillin-streptomycin). The immortalized human microglia (Applied Biologics Materials, T0251) were cultured in PriGrow III (Applied Biologics Materials, TM003) (supplemented with 10% FBS and 1% penicillin-streptomycin) at 37 °C in a humidified atmosphere of 5% CO2. In order to assess the clinical importance of N-AS in AD microglia, Aβ 1–42 (50 μM, 24 h, Invitrogen, 03112) was exposed to human microglia before treated with zileuton (50 μM, 24 h, Sigma-Aldrich, Z4277). The human microglia treated with Aβ 1–42 and/or zileuton was incubated with N-AS (2.5 μM, 2 h, Sigma-Aldrich, 01912), and were analyzed for the generation and roles of N-AS.
Samples were lysed in RIPA buffer (Cell signaling Technologies), then subjected to SDS-PAGE and transferred to a nitrocellulose membrane. Membranes were blocked with 5% milk, incubated with primary antibody and then incubated with the appropriate horseradish peroxidase-conjugated secondary antibody. […] We performed densitometric quantification using the ImageJ software (National Institutes of Health). Images have been cropped for presentation.

[2] = tested on: microglia; test: quantification of 15R-LXA4, RvE1, RvD1 in primary cells (LC-MS/MS); format: cell-based, C57BL/6 mice; parameters: unit not given here; conditions: replicates
Protocol: Lipid mediators metabololipidomics were performed according to previously described procedures with minor modifications[4],[30]. To confirm the biosynthesis of lipid mediators by recombinant COX2 treated with N-AS or aspirin, 10 U of human recombinant COX2 (Cayman, 60122) was incubated in the presence of 500 μM aspirin (Sigma-Aldrich, A5376) or N-AS (Sigma-Aldrich, 01912) at 37 °C for 30 min. The enzyme was filtered with a Microcon column (Millipore) to remove unreacted aspirin or N-AS and was then resuspended in 0.1 M Tris-HCl (pH 8.0). Next, 500 μM phenol (Sigma-Aldrich) and 1 μM hematin-porcine (Sigma-Aldrich) were added immediately before incubation with 100 μM AA, EPA or DHA (Cayman) at 37 °C for 2 h, respectively. The mixtures were incubated with 30 U of human 5-LOX (Cayman, 60402) containing 2 mM CaCl2 (Sigma-Aldrich), 1 mM ATP (Amresco) and 5 μM 13-HpODE (Cayman) as activators. Also, to validate the importance of residue S565 for N-AS-acetylation of COX2 and production of SPMs, 10 U of the COX2 S565A mutant was used in the above-described method. In addition, to confirm SPM generation in neurons and microglia, these cells were treated with Aβ and sonicated in neuronal and glial culture medium. […] To evaluate the relationship of N-AS and SPM production in microglia, microglia were isolated from WT, APP/PS1, and APP/PS1 treated with N-AS mice at 9 months of age. The microglia were sonicated and resuspended in microglial culture medium. The supernatants were incubated with 100 μM AA, EPA, and DHA (Cayman) at 37 °C for 2 h. A 50 μl aliquot of the mixture from each cell lysate was added to a 250 μl aliquot of 1 ng ml^−1 of 15S-LXA4-d5 (internal standard, Cayman) methanol solution. After vortexing for 10 min and centrifuging at 15,974×g for 5 min, the supernatant was subjected to the analysis of the lipid mediators using an Agilent 6470 Triple Quad LC-MS/MS system (Agilent) coupled to an Agilent 1290 HPLC system. Chromatographic separation was achieved using a Synergi Polar RP (4 μm, 2.0 mm i.d. × 150 mm, Phenomenex). Analytes were eluted with a mobile phase consisting of water: formic acid (100:0.1 v/v) (phase A) and methanol: formic acid (100:0.1 v/v) (phase B) in gradient elution mode for 23 min a flow rate of 0.2 ml min^−1. The elution gradient was as follows: from 0 to 0.1 min the content of phase A was 37% and the content of phase A was decreased to 10% and maintained for 5.5 min. The content of phase A was increased back to 37% at 6.0 min and maintained for 23 min. Quantification was carried out using MRM in negative ionization mode and collision energy of 10–15 eV. The mass transition from Q1 to Q3 is shown in Supplementary Table 2. In this study, the peak areas for all components were automatically integrated using MassHunter B 06.00. […]

Molecule | ac-S565, western blotting (Fig 3h) ([1]; Ab 10mM + supplement) | 15R-LxA4 (Fig 3i) ([2]; Ab + supplement) | RvD1 (Fig 3i) ([2]; Ab + supplement) | RvE1 (Fig 3i) ([2]; Ab + supplement) | ac-S565, western blotting (Fig 3h) ([1]; Ab 10mM, no supplement) | ac-S565 / total COX2, western blotting (Fig 3b) ([1]; Ab 10mM) | 15R-LxA4 (Fig 3i) ([2]; Ab, no supplement) | RvD1 (Fig 3i) ([2]; Ab, no supplement) | RvE1 (Fig 3i) ([2]; Ab, no supplement)
CC(=O)SCCNC(=O)CCNC(=O)[C@H](O)C(C)(C)COP(=O)(O)OP(=O)(O)OC[C@H]1O[C@@H](n2cnc3c(N)ncnc32)[C@H](O)[C@@H]1OP(=O)(O)O [Acetyl-CoA, acetyl-CoA] | 1.293 and 1.204 and 1.322 and 1.2834 | 23.4411 and 23.4018 and 22.7231 and 22.8804 and 24.0018 and 22.8017 | 1.293 and 1.217 and 1.321 and 1.255 and 1.269 and 1.288 | 7.62 and 7.421 and 7.916 and 7.52 and 7.668 and 7.718 | – | – | – | – | –
CCCCCCCCCCCCC/C=C/[C@@H](O)[C@@H](N)CO [Sph, sphingosine] | 0.2446 and 0.241 and 0.1599 and 0.2328 | 0.0305 and 0.03209 and 0.03444 and 0.02809 and 0.03291 and 0.03127 | 0.01033 | 0.01434 and 0.01128 and 0.01433 and 0.01281 (2×) and 0.01357 | – | – | – | – | –
CCCCCCCCCCCCC/C=C/[C@@H](O)[C@H](CO)NC(C)=O [N-AS, N-((2S,3R,E)-1,3-Dihydroxyoctadec-4-en-2-yl)acetamide] | 1.339 and 1.447 and 1.994 and 1.362 | 7.914 and 7.871 and 7.582 and 7.755 and 8.0725 and 7.669 | 0.9961 and 0.9192 and 1.008 and 0.9576 and 0.9636 and 0.9828 | 3.41 and 3.669 and 3.726 and 3.54 and 3.698 and 3.633 | – | – | – | – | –
Ab: Aβ 1–42 (Invitrogen, 03112) used to induce an AD environment in cells | – | – | – | – | 0.2316 and 0.2169 and 0.2234 and 0.1511 | 0.3907 and 0.4255 and 0.3575 and 0.3077 and 0.4081 and 0.3915 | 0.02349 and 0.02377 and 0.02373 and 0.02259 and 0.02438 and 0.02316 | 0.01012 | 0.01237 and 0.02326 and 0.01244 and 0.01782 and 0.01785 and 0.01513
Sphk1: purified sphingosine kinase1 enzyme (Cayman, 10348) supplemented to cell lysates (protein, UniProt Q9NYA1 1-384, looked up) Sphingosine kinase 1: MDPAGGPRGVLPRPCRVLVLLNPRGGKGKALQLFRSHVQPLLAEAEISFTLMLTERRNHARELVRSEELGRWDALVVMSGDGLMHEVVNGLMERPDWETAIQKPLCSLPAGSGNALAASLNHYAGYEQVTNEDLLTNCTLLLCRRLLSPMNLLSLHTASGLRLFSVLSLAWGFIADVDLESEKYRRLGEMRFTLGTFLRLAALRTYRGRLAYLPVGRVGSKTPASPVVVQQGPVDAHLVPLEEPVPSHWTVVPDEDFVLVLALLHSHLGSEMFAAPMGRCAAGVMHLFYVRAGVSRAMLLRLFLAMEKGRHMEYECPYLVYVPVVAFRLEPKDGKGVFAVDGELMVSEAVQGQVHPNYFWMVSGCVEPPPSWKPQQMPPPEEPL | 0.2731 and 0.2264 and 0.2811 and 0.241 | 0.02407 and 0.02353 and 0.02184 and 0.02402 and 0.02413 and 0.02293 | 0.01112 | 0.01218 and 0.0124 and 0.01241 (2×) and 0.01229 and 0.01235 | – | – | – | – | –
